Values belong to the compound of their own block, whether it stands above or below them.
Experiments:
[1] = target: T1, PI3K alpha (p110 alpha) (Homo sapiens, UniProt P42336); assay: PI3K p110α (alpha) binding assay (Example 901); details: for IC50: read-out: IC50, inhibition of PI3K alpha (binding to p110 alpha)
T1 construct: purchased Upstate Cell Signaling Solutions, Charlottesville, Va
Excerpt: Determination of the PI3 kinase activity of a Formula I compound is possible by a number of direct and indirect detection methods.

[2] = tested on: AU565; assay: CellTiter-Glo cell proliferation assay, AU565; type: cell-based; details: Homo sapiens, Breast, mutation status WT
Procedure: (§1) Efficacy of Formula I compounds was measured by a cell proliferation assay employing the following protocol (Promega Corp. Technical Bulletin TB288; Mendoza et al (2002) Cancer Res. 62:5485-5488):
(§2) 1. An aliquot of 100 μl of cell culture containing about 104 cells (PC3, Detroit562, or MDAMB361.1) in medium was deposited in each well of a 384-well, opaque-walled plate.
(§3) 2. Control wells were prepared containing medium and without cells.
(§4) 3. The compound was added to the experimental wells and incubated for 3-5 days.
(§5) 4. The plates were equilibrated to room temperature for approximately 30 minutes.
(§6) 5. A volume of CellTiter-Glo Reagent equal to the volume of cell culture medium present in each well was added.
(§7) 6. The contents were mixed for 2 minutes on an orbital shaker to induce cell lysis.
(§8) 7. The plate was incubated at room temperature for 10 minutes to stabilize the luminescence signal.
(§9) 8. Luminescence was recorded and reported in graphs as RLU=relative luminescence units.
(§10) Alternatively, cells were seeded at optimal density in a 96 well plate and incubated for 4 days in the presence of test compound. Alamar Blue™ was subsequently added to the assay medium, and cells were incubated for 6 hr before reading at 544 nm excitation, 590 nm emission. EC50 values were calculated using a sigmoidal dose response curve fit. The term EC50 refers to the half maximal effective concentration and is the concentration at which a drug induces a response halfway between the baseline and maximum after some specified exposure time. It is commonly used as a measure of drug potency.
(§11) The anti-proliferative effects of Formula I exemplary compounds were measured by the CellTiter-Glo® Assay against various tumor cell lines, including the following: […]

[3] = tested on: BT474; assay: CellTiter-Glo cell proliferation assay, BT474; type: cell-based; details: Homo sapiens, BT-474, Breast, mutation status PI3K(amped)
Procedure: as §1, §2, §3, §4, §5, §6, §7, §8, §9, §10, §11

[4] = tested on: EVSA-T; assay: CellTiter-Glo cell proliferation assay, EVSA-T; type: cell-based; details: Homo sapiens, Breast, mutation status PTEN
Procedure: as §1, §2, §3, §4, §5, §6, §7, §8, §9, §10, §11

[5] = tested on: HCC1954; assay: CellTiter-Glo cell proliferation assay, HCC1954; type: cell-based; details: Homo sapiens, Breast, mutation status PI3K
Procedure: as §1, §2, §3, §4, §5, §6, §7, §8, §9, §10, §11

[6] = tested on: KPL4; assay: CellTiter-Glo cell proliferation assay, KPL4; type: cell-based; details: Breast, mutation status PI3K
Procedure: as §1, §2, §3, §4, §5, §6, §7, §8, §9, §10, §11

[7] = tested on: MDA-MB-361.1; assay: CellTiter-Glo cell proliferation assay, MDA-MB-361.1; type: cell-based; details: Breast, mutation status PI3K
Procedure: as §1, §2, §3, §4, §5, §6, §7, §8, §9, §10, §11

[8] = tested on: MFM223; assay: CellTiter-Glo cell proliferation assay, MFM223; type: cell-based; details: Homo sapiens, MFM-223, Breast, mutation status PI3K
Procedure: as §1, §2, §3, §4, §5, §6, §7, §8, §9, §10, §11

[9] = tested on: SKBR3; assay: CellTiter-Glo cell proliferation assay, SKBR3; type: cell-based; details: Homo sapiens, SK-BR-3, Breast, mutation status WT
Procedure: as §1, §2, §3, §4, §5, §6
6. […]
as §8, §9
(§12) Alternatively, cells were seeded at optimal density in a 96 well plate and incubated for 4 days in the presence of test compound. Alamar Blue™ was subsequently added to the assay medium, and cells were incubated for 6 hr before reading at 544 nm excitation, 590 nm emission. EC50 values were calculated using a sigmoidal dose response curve fit. […]
as §11

[10] = tested on: T47D; assay: CellTiter-Glo cell proliferation assay, T47D; type: cell-based; details: Homo sapiens, Breast, mutation status PI3K
Procedure: as §1, §2, §3, §4, §5, §6, §7, §8, §9, §10, §11

[11] = tested on: H2122; assay: CellTiter-Glo cell proliferation assay, H2122; type: cell-based; details: Homo sapiens, NCI-H2122, Lung(NSCLC), mutation status K-RAS
Procedure: as §1, §2, §3, §4, §5, §6, §7, §8, §9, §10, §11

[12] = tested on: PC3; assay: CellTiter-Glo cell proliferation assay, PC3; type: cell-based; details: Homo sapiens, PC-3, Prostate, mutation status PTEN
Procedure: as §1, §2, §3, §4, §5, §6, §7, §8, §9, §10, §11

[13] = tested on: KM12; assay: CellTiter-Glo cell proliferation assay, KM12; type: cell-based; details: Homo sapiens, Colon, mutation status PTEN
Procedure: as §1, §2, §3, §4, §5, §6
6. […]
as §8, §9, §12, §11

[14] = tested on: MDST8; assay: CellTiter-Glo cell proliferation assay, MDST8; type: cell-based; details: Colon, mutation status PTEN
Procedure: as §1, §2, §3, §4, §5, §6
6. […]
as §8, §9, §12, §11

[15] = tested on: U87MG; assay: CellTiter-Glo cell proliferation assay, U87MG; type: cell-based; details: Homo sapiens, U-87 MG, Glioma, mutation status PTEN
Procedure: as §1, §2, §3, §4, §5, §6
6. […]
as §8, §9, §12, §11

[16] = tested on: H520; assay: CellTiter-Glo cell proliferation assay, H520; type: cell-based; details: Homo sapiens, NCI-H520, Lung(NSCLC), mutation status PTEN
Procedure: as §1, §2, §3, §4, §5, §6
6. […]
as §8, §9, §12, §11

[17] = tested on: A375; assay: CellTiter-Glo cell proliferation assay, A375; type: cell-based; details: Homo sapiens, A-375, Melanoma, mutation status B-Raf
Procedure: as §1, §2, §3, §4, §5, §6
6. […]
as §8, §9, §12, §11

T1 sequence (P42336 whole entry): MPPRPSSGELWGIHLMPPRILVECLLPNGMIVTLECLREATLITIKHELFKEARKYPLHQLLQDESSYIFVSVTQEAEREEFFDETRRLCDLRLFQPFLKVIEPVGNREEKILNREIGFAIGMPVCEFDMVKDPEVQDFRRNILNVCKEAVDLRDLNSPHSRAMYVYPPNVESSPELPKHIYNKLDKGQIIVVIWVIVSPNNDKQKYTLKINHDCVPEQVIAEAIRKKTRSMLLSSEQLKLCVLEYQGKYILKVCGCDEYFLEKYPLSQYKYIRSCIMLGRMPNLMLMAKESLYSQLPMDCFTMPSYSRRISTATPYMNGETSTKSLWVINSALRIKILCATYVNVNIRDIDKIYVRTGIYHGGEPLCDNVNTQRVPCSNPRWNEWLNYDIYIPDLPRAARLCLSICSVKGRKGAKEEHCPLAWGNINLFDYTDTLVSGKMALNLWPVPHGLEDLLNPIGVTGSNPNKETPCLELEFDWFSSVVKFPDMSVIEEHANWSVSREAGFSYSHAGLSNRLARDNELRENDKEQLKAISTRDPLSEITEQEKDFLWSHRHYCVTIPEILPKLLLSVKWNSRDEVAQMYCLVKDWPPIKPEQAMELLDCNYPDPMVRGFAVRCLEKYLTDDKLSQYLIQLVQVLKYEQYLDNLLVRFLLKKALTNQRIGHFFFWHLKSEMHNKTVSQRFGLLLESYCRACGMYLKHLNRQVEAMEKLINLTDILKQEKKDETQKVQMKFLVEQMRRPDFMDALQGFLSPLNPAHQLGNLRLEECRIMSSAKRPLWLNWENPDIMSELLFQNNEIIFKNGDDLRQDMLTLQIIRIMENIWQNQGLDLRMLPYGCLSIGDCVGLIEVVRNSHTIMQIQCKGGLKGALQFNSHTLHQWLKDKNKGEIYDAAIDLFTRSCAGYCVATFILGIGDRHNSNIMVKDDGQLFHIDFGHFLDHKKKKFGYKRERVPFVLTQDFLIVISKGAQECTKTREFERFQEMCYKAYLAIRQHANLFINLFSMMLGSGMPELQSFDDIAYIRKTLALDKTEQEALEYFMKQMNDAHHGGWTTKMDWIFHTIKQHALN
T1 sequence (P27986 whole entry partner): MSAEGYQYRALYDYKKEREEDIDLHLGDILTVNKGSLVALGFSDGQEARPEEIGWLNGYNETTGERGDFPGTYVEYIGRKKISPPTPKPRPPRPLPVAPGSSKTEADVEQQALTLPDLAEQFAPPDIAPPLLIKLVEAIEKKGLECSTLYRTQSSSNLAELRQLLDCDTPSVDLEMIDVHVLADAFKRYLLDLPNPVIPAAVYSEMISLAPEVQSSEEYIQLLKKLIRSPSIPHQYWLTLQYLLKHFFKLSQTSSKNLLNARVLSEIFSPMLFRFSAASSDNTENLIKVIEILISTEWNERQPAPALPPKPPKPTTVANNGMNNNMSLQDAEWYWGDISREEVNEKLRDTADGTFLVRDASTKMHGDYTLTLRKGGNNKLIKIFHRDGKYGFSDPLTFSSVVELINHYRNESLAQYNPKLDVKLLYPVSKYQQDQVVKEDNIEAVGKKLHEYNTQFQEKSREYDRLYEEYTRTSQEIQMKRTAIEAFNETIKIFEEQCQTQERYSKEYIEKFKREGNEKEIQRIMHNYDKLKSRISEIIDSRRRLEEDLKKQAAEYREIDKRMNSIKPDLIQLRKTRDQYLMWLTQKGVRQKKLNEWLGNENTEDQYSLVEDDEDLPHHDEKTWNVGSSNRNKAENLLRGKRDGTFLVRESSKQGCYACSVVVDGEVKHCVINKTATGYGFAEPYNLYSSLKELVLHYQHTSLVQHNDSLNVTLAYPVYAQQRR

SMILES: Clc1ccccc1-n1ncnc1-n1cc2c(n1)-c1cc(C3CCNCC3)ccc1OCC2 [compound 154, 2-(1-(2-chlorophenyl)-1H-1,2,4-triazol-5-yl)-9-piperid-4-yl-4,5-dihydrobenzo-2H-oxepino[4,5-d]pyrazole]
IC50 [1]: 0.91 nM

SMILES: Cc1nc(-c2cn3c(n2)-c2ccc(-c4cnn(CCO)c4)cc2OCC3)n(C(C)C)n1 [compound 186, 2-(4-(2-(1-isopropyl-3-methyl-1H-1,2,4-triazol-5-yl)-5,6-dihydrobenzo[f]imidazo[1,2-d][1,4]oxazepin-9-yl)-1H-pyrazol-1-yl)ethanol]
EC50 [2]: 470 nM
EC50 [3]: 324 nM
EC50 [4]: 2000 nM
EC50 [5]: 420 nM
EC50 [6]: 88 nM
EC50 [7]: 710 nM
EC50 [8]: 1100 nM
EC50 [9]: 860 nM
EC50 [10]: 133 nM
EC50 [11]: 2950 nM
EC50 [12]: 1300 nM

SMILES: CC(C)n1ncnc1-c1cc2n(n1)-c1cc(C3CN(C(C)(C)CO)C3)ccc1OCC2 [compound 170, 2-(3-(2-(1-isopropyl-1H-1,2,4-triazol-5-yl)-4,5-dihydrobenzo[b]pyrazolo[1,5-d][1,4]oxazepin-9-yl)azetidin-1-yl)-2-methylpropan-1-ol]
IC50 [1]: 22 nM

SMILES: Fc1ccc(-n2ncnc2-n2cc3c(n2)-c2ccc(Br)cc2OCC3)c(F)c1 [compound 103, 2-(1-(2,4-difluorophenyl)-1H-1,2,4-triazol-5-yl)-8-bromo-4,5-dihydrobenzo-2H-oxepino[4,5-d]pyrazole]
IC50 [1]: 58 nM

SMILES: NC(=O)c1ccc2c(c1)OCCc1cn(-c3ncnn3-c3ccc(F)cc3F)nc1-2 [compound 107, 2-(1-(2,4-difluorophenyl)-1H-1,2,4-triazol-5-yl)-4,5-dihydrobenzo-2H-oxepino[4,5-d]pyrazole-8-carboxamide]
EC50 [2]: 259 nM
EC50 [4]: 1410 nM
EC50 [7]: 1050 nM
EC50 [12]: 999 nM

SMILES: NC(=O)c1ccc2c(c1)-c1nc(-c3ncnn3-c3ccccc3Cl)cn1CCO2 [compound 102, 2-(1-(2-chlorophenyl)-1H-1,2,4-triazol-5-yl)-5,6-dihydrobenzo[f]imidazo[1,2-d][1,4]oxazepine-10-carboxamide]
IC50 [1]: 3 nM

SMILES: Cc1nc(-c2cn3c(n2)-c2ccc(-c4cnn(C(C)(C)C(N)=O)c4)cc2OCC3)n(C(C)C)n1 [compound 196, 2-(4-(2-(1-isopropyl-3-methyl-1H-1,2,4-triazol-5-yl)-5,6-dihydrobenzo[f]imidazo[1,2-d][1,4]oxazepin-9-yl)-1H-pyrazol-1-yl)-2-methylpropanamide]
EC50 [2]: 152 nM
EC50 [3]: 86 nM
EC50 [5]: 128 nM
EC50 [6]: 16 nM
EC50 [7]: 178 nM
EC50 [10]: 45 nM
EC50 [17]: 10000 nM

SMILES: CN(C(=O)c1cc2n(n1)-c1ccccc1OCC2)c1ccc(F)cc1F [compound 101, N-(2,4-difluorophenyl)-N-methyl-4,5-dihydrobenzo[b]pyrazolo[1,5-d][1,4]oxazepine-2-carboxamide]
IC50 [1]: 770 nM

SMILES: CS(=O)(=O)CCN1CC(c2ccc3c(c2)OCCc2cn(-c4ncnn4-c4ccc(F)cc4F)nc2-3)C1 [compound 171, 2-(1-(2,4-difluorophenyl)-1H-1,2,4-triazol-5-yl)-8-(1-(2-(methylsulfonyl)ethyl)azetidin-3-yl)-4,5-dihydrobenzo-2H-oxepino[4,5-d]pyrazole]
IC50 [1]: 0.66 nM

More lines, main results first:

IC50 [1]: 1.4 nM
SMILES: Cc1nc(-c2cn3c(n2)-c2ccc(-c4cnn(C(C)(C)C(=O)O)c4)cc2OCC3)n(C(C)C)n1 [compound 251, 2-(4-(2-(1-isopropyl-3-methyl-1H-1,2,4-triazol-5-yl)-5,6-dihydrobenzo[f]imidazo[1,2-d][1,4]oxazepin-9-yl)-1H-pyrazol-1-yl)-2-methylpropanoic acid]

Ki ([1]; read-out: Ki, inhibition of PI3K alpha (binding to p110 alpha)): 2.1 nM
SMILES: Cc1nc(-c2cn3c(n2)-c2ccc(OC4COC4)cc2OCC3)n(C(C)C)n1 [compound 520, 2-(1-isopropyl-3-methyl-1H-1,2,4-triazol-5-yl)-9-(oxetan-3-yloxy)-5,6-dihydrobenzo[f]imidazo[1,2-d][1,4]oxazepine]

IC50 [1]: 0.37 nM
SMILES: CNC(=O)C(C)(C)N1CCC(c2ccc3c(c2)OCCn2cc(-c4ncnn4C(C)C)nc2-3)CC1 [compound 248, 2-(4-(2-(1-isopropyl-1H-1,2,4-triazol-5-yl)-5,6-dihydrobenzo[f]imidazo[1,2-d][1,4]oxazepin-9-yl)piperidin-1-yl)-N,2-dimethylpropanamide]

IC50 [1]: 4.4 nM
SMILES: CC(C)n1nc(N)nc1-c1cn2c(n1)-c1ccc(F)cc1OCC2 [compound 253, 5-(9-fluoro-5,6-dihydrobenzo[f]imidazo[1,2-d][1,4]oxazepin-2-yl)-1-isopropyl-1H-1,2,4-triazol-3-amine]

IC50 [1]: 0.32 nM
SMILES: CC(C)n1ncnc1-c1cn2c(n1)-c1cnc(N3CCC[C@H]3C(N)=O)cc1OCC2 [compound 338, (2S)-1-(2-(1-isopropyl-1H-1,2,4-triazol-5-yl)-5,6-dihydroimidazo[1,2-d]pyrido[3,4-f][1,4]oxazepin-9-yl)pyrrolidine-2-carboxamide]

EC50 [3]: 1680 nM
EC50 [5]: 3390 nM
EC50 [7]: ≥ 10000 nM
EC50 [10]: 762 nM
EC50 [15]: 5770 nM
EC50 [11]: ≥ 10000 nM
EC50 [16]: 1290 nM
EC50 [12]: 762 nM
SMILES: CC(C)n1ncnc1-c1cn2c(n1)-c1ccc(-c3cn(CCO)cn3)cc1OCC2 [compound 207, 2-(4-(2-(1-isopropyl-1H-1,2,4-triazol-5-yl)-5,6-dihydrobenzo[f]imidazo[1,2-d][1,4]oxazepin-9-yl)-1H-imidazol-1-yl)ethanol]
EC50 [2]: 3730 nM
EC50 [4]: 1770 nM
EC50 [6]: 1360 nM
EC50 [8]: 7250 nM
EC50 [13]: ≥ 10000 nM
EC50 [14]: 7790 nM

IC50 [1]: 2 nM
SMILES: CC(C)NC(=O)CN1CC(c2ccc3c(c2)OCCn2cc(-c4ncnn4C(C)C)nc2-3)C1 [compound 200, N-isopropyl-2-(3-(2-(1-isopropyl-1H-1,2,4-triazol-5-yl)-5,6-dihydrobenzo[f]imidazo[1,2-d][1,4]oxazepin-9-yl)azetidin-1-yl)acetamide]

Reference: patent US9198918B2, “Benzoxazepin PI3K inhibitor compounds and methods of use” (Genentech, Inc., priority 2009, dated 2015)
